The values that follow are results of earlier work, collected in patent US8097606B2, “Antiglucocorticoids for the treatment of catatonia” (Corcept Therapeutics, Inc., priority 2003, dated 2012).

The structures appear in SMILES notation.

Take `CC#C[C@]1(O)CC[C@H]2[C@@H]3CCC4=CC(=O)CCC4=C3[C@@H](c3ccc(N(C)C)cc3)C[C@@]21C` [mifepristone, 17-β-hydroxy-11-β-(4-dimethyl-aminophenyl)-17-α-(1-propynyl)-estra-4,9-dien-3-one]: the “share of the daily dose excreted in the urine” value is reported as “less than 0.5%”.
